Results on 2 compounds are retold here after patent US20080262228A1, “Metabolites of 5-fluoro-8- quinoline and methods of preparation and uses thereof” (Wyeth, priority 2006, published 2008).

Data set [1] is described as follows: Metabolite characterization in cryopreserved hepatocytes. The conditions noted are these: hepatocyte incubations, 20 μM; R, rat; D, dog; H, human; Media = decomposition product observed in media control.
Protocol: Pooled male rat, dog, and mixed male and female human cryopreserved hepatocytes were used in this study. The cryopreserved hepatocytes (two vials from each species; three to five million viable cells per vial) were thawed in a 37° C. water bath with gentle shaking until the ice was almost melted. The suspensions from the two individual vials of the same species were immediately transferred to a 50 mL centrifuge tube containing pre-warmed thawing media at 37° C. with gentle handshaking to prevent the cells from settling. The cell suspension was centrifuged at 50 g for 5 min at 4° C. Supernatants were discarded and the pellets were resuspended in pre-warmed incubation media (8 mL) at 37° C. […] [^14C]COMPOUND I (20 μM) was incubated in a 12-well plate containing hepatocyte suspensions at 1.0 mL per well in duplicate (≧1 million viable cells/well) at 37° C. for 1 or 4 hr in the presence of 5% CO2:95% O2. Control incubations without hepatocytes were also run under the same conditions. Positive controls containing [^14C]7-ethoxycoumarin (100 μM) were also incubated under the same conditions, but only for 1 hr. At the end of the incubations, reactions were stopped by adding acetonitrile with 2% acetic acid (1 mL), mixed for 10 min, followed by centrifugation at 4000 rpm for 10 min at 4° C. Aliquots (50 μL) of supernatants were analyzed by HPLC with UV and radioactivity flow detection for metabolite profiling, and by LC/MS for metabolite identification as described in below. To determine extraction recovery, aliquots (20 μL) of supernatants were analyzed for radioactivity content utilizing a Packard Tri-Carb Model 3100 TR liquid scintillation counter and 5 mL of Ultima Gold.
The HPLC system used for mass spectrometric analysis was a Waters Alliance model 2695 HPLC system (Waters Corp). It was equipped with a built-in autosampler and a model 996 diode array UV detector. The UV detector was set to monitor 210-400 nm. The HPLC conditions were the same as those described hereinabove with the following exceptions. […]
Data set [2] can be described thus: In vivo metabolism of [14C]COMPOUND I in Sprague-Dawley rats, single oral 5 mg/kg dose. Further details: species or system rat. The conditions noted are these: for Chromatographic Distribution of Radioactivity in Pooled Plasma Samples: 5 mg/kg oral [14C]COMPOUND I; for percent of total radioactivity in the fecal extract: pooled 0-24 hr feces; for Source: P, plasma, F, feces, B, brain.

Setting [3] is: female, Sprague-Dawley, rat, brain and plasma, po, 5 mg/kg, read-out: Brain/Plasma COMPOUND I Ratio.
Setting [4] is: male, Sprague-Dawley, rat, brain and plasma, po, 5 mg/kg, read-out: Brain/Plasma COMPOUND I Ratio.

Counter-ions that a name gives are not always drawn. Like-named read-outs stand apart in the source and are kept apart here.

On to `COc1cc(N2CCN(C3CCN(c4ccc(F)c5cccnc45)CC3)CC2)c2ncccc2c1` [COMPOUND I, 5-Fluoro-8-{4-[4-(6-methoxyquinolin-8-yl)piperazin-1-yl]piperidin-1-yl}quinoline], for which the Source result in data set [1] is on record as “All”; in data set [2] (rats, 5 mg/kg oral), “P, B, F”. Moreover, the Kp in data set [2] (Sprague-Dawley, rat, brain and plasma, rats, 5 mg/kg oral, read-out: brain-to-plasma ratios of COMPOUND I concentrations) was 0.47 to 0.85. Moreover, the concentration at 1 hr in data set [2] (Sprague-Dawley, rat, female rats, 1 hr, 5 mg/kg oral, mean brain radioactivity x percentage of COMPOUND I in pooled sample, read-out: Brain COMPOUND I Concentrations) turned out to be 106 ng/g; in data set [2] (Sprague-Dawley, rat, male rats, 1 hr, 5 mg/kg oral, mean brain radioactivity x percentage of COMPOUND I in pooled sample, read-out: Brain COMPOUND I Concentrations), 40.9 ng/g. Moreover, the concentration at 3 hr in data set [2] (Sprague-Dawley, rat, female rats, 3 hr, 5 mg/kg oral, mean brain radioactivity x percentage of COMPOUND I in pooled sample, read-out: Brain COMPOUND I Concentrations) is 34.7 ng/g; in data set [2] (Sprague-Dawley, rat, male rats, 3 hr, 5 mg/kg oral, mean brain radioactivity x percentage of COMPOUND I in pooled sample, read-out: Brain COMPOUND I Concentrations), 15.9 ng/g. The concentration at 6 hr in data set [2] (Sprague-Dawley, rat, male rats, 6 hr, 5 mg/kg oral, mean brain radioactivity x percentage of COMPOUND I in pooled sample, read-out: Brain COMPOUND I Concentrations) was 10 ng/g. Moreover, the “Chromatographic Distribution of Radioactivity in Pooled Plasma Samples” value was found to be 16.4% in data set [2] (female rats, 1 hr); 14.6% in data set [2] (female rats, 3 hr); 16.9% in data set [2] (male rats, 1 hr); 15.5% in data set [2] (male rats, 3 hr); 8.7% in data set [2] (male rats, 6 hr). Moreover, the “percent of total brain radioactivity” value is 79.5% in data set [2] (female rats, 1 hr, pooled brain, 5 mg/kg oral); 70.7% in data set [2] (female rats, 3 hr, pooled brain, 5 mg/kg oral); 80.3% in data set [2] (male rats, 1 hr, pooled brain, 5 mg/kg oral); 63.8% in data set [2] (male rats, 3 hr, pooled brain, 5 mg/kg oral); 60.5% in data set [2] (male rats, 6 hr, pooled brain, 5 mg/kg oral). Moreover, the Kp at 1 h was 0.77 in data set [2] (setting [3]) and 0.47 in data set [2] (setting [4]). Further, the Kp at 3 h in data set [2] (setting [3]) is 0.58; in data set [2] (setting [4]) it was 0.54. The “percent of total plasma radioactivity” value in data set [2] (male rats, from 1 to 6 hr post-dose, 5 mg/kg oral) is reported as 8.7-16.9%. For the same compound, the “percent of total radioactivity in the fecal extract” value in data set [2] (male rats, 5 mg/kg oral) is listed as 8.1%. The Kp at 6 h in data set [2] (setting [4]) came out at 0.85.
In the case of `Oc1cc(N2CCN(C3CCN(c4ccc(F)c5cccnc45)CC3)CC2)c2ncccc2c1` [Metabolite M21, 8-{4-[1-(5-fluoroquinolin-8-yl)piperidin-4-yl]piperazin-1-yl}quinolin-6-ol trihydrochloride], the Source result in data set [1] is “R (trace), D, H”; in data set [2] (rats, 5 mg/kg oral) it was “B, F”. Further, the “percent of total brain radioactivity” value in data set [2] (female rats, between 1 and 3 hr post-dose, 5 mg/kg oral) is listed as 11.3-13.6%; in data set [2] (male rats, between 1 and 6 hr post-dose, 5 mg/kg oral) it was 9.0-9.4%. The “percent of total radioactivity in the fecal extract” value in data set [2] (male rats, 5 mg/kg oral) was found to be 15.1%.
